# From PMC4992025, “A Colorimetric Microplate Assay for DNA-Binding Activity of His-Tagged MutS Protein” (Molecular Biotechnology, 2016)
# Target: T1, TthMutS (Thermus thermophilus, UniProt Q56239)
# T1 construct: gene mutS; N-terminal His-tag translational fusion, tag kept; expressed in E. coli BL21(DE3)pLysS; IMAC purified; immobilized on nickel plate; 92 kDa monomer (stated for MutS generally)
# T1 sequence (Q56239 2-819): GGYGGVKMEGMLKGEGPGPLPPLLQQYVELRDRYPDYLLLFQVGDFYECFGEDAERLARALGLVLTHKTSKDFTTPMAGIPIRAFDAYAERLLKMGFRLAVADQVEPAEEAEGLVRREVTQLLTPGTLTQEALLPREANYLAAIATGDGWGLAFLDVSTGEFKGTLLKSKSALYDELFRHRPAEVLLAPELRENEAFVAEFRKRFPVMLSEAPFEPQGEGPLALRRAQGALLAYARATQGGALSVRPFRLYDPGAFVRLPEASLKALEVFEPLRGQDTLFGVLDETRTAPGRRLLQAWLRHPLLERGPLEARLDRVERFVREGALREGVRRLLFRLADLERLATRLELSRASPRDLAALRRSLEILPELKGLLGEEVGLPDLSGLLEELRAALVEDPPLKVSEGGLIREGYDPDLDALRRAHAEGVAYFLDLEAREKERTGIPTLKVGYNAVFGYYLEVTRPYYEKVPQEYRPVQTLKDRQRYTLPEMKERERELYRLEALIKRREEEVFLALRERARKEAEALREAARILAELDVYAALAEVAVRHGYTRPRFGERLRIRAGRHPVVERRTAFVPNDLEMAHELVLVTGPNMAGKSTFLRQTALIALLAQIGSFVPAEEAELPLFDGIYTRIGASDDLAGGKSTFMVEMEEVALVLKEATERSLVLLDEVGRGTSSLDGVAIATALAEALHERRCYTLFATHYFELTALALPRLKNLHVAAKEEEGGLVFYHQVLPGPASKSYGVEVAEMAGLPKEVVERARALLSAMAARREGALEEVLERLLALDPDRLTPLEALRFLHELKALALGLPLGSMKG
# Assay: colorimetric nickel-plate DNA mismatch binding assay (A620)
# Format: biochemical
# Conditions: 1 mM ADP; 300 mM salt (PBSx2); room temperature; immobilized his-tagged protein; modulator of TG49 mismatch versus TA49 DNA binding
structure (smiles),measurement,value
Nc1ncnc2c1ncn2[C@@H]1O[C@H](COP(=O)(O)OP(=O)(O)O)[C@@H](O)[C@H]1O [ADP],colorimetric nickel-plate DNA mismatch binding assay (A620),"In the presence of ADP, the specificity of MutS from T. thermophilus strongly increased"
